# Measurements taken from patent US20240150839A1, “METHODS FOR PREDICTING RESPONSIVENESS OF PROSTATE CANCER PATIENTS TO PARP INHIBITORS” (Memorial Sloan Kettering Cancer Center, priority 2019, published 2024).
# Legend:
# Type in all cases: cell-based, human
# [1] = tested on: BRCA2 SMARTpool siRNA-transfected LAPC4 cells; assay: MTT cell growth of BRCA2 siRNA-transfected LAPC4 cells with enzalutamide; settings: BRCA2 siRNA LAPC4 vs scrambled siRNA; ENZ 20 μM, 72 hours after transfection (FIG. 1F)
# Procedure: Cells infected with scrambled (scr) gRNA were used as a negative control. Cas9 and RHoGDI served as loading controls. […] Nuclei were stained with DAPI (blue). […] P-values were determined by Student's t-test. ***P<0.001. […] Equivalent volume of DMSO was used as placebo treatment. Cell growth was measured by BRDU incorporation assay (see Example 1) (±SD); P-values were determined by Student's t-test.***P<0.001. […] Parental LAPC4 cells were transiently transfected with BRCA2-specific SMARTpool siRNA for 96 hours. Total RNA was isolated, and BRCA2 mRNA was analyzed by qPCR. Scrambled SMARTpool siRNA-transfected cells were used as control (top). BRCA2- or scrambled SMARTpool siRNA-transfected LAPC4 cells were cultured in charcoal-stripped medium (CSS) or complete medium supplemented with enzalutamide (ENZ; 20 μM) for 72 hours after transfection (bottom). Equivalent volume of DMSO was used as placebo treatment. Cell growth was measured by MTT assay; SD, p-values were determined by Student's t-test. […] Control and CRISPR-edited LNCaP cells (10^3 cells/well) were mixed with Matrigel, and 3D cell cultures (organoids) were grown for 7 days in androgen-depleted, growth factor-enriched media. […]
# (§1) Cell Proliferation Assay by MTT, BrdU and Crystal Violet. […] MTT crystals were dissolved in isopropanol and absorbance was measured in a BioTek plate reader at […] and represented graphically.
# [2] = tested on: BRCA2 SMARTpool siRNA-transfected LNCaP cells; assay: MTT cell growth of BRCA2 siRNA-transfected LNCaP cells with enzalutamide; settings: BRCA2 siRNA LNCaP vs scrambled siRNA; ENZ 20 μM, 96 hours post transfection (FIG. 7G)
# Procedure: Cells infected with scrambled (scr) gRNA were used as control. Equal amount of proteins was loaded in WedgeWell 6% gel and western blot was performed. ˜400 kDa BRCA2 band is indicated by arrow. GAPDH served as loading controls for western blot and qPCR. […] Genotypes are detected by PCR amplification followed by being treated with T7 endonuclease. Wt and mutant BRCA2 are indicated by red and green arrows, respectively. […] Equivalent volume of DMSO was used as placebo treatment. Cell growth was measured by MTT assay (see Example 1); SD, P-values determined by Student's t-test. *P<0.05, **P<0.01, ***P<0.001. […] Cell growth was measured by crystal violet staining assay (see Example 1) (±SD); P-values determined by Student's t-test. […] Cell growth was measured by MTT assay (see Example 1) (±SD); P-values determined by Student's t-test. […] Total RNA was isolated, and BRCA2 mRNA was analyzed by qPCR. […] Cell growth was measured by MTT assay; SD, P-values determined by Student's t-test. […]
# as §1
# [3] = tested on: BRCA2-null LNCaP cells; assay: Cell growth (BrdU, crystal violet, MTT) of BRCA2 CRISPR-edited LNCaP cells with enzalutamide; settings: BRCA2-null LNCaP vs scr control; complete medium, 7 days (FIGS. 1E, 7D, 7F)
# Procedure: Cells infected with scrambled (scr) gRNA were used as a negative control. Cas9 and RHoGDI served as loading controls. […] Nuclei were stained with DAPI (blue). […] P-values were determined by Student's t-test. ***P<0.001. […] Equivalent volume of DMSO was used as placebo treatment. Cell growth was measured by BRDU incorporation assay (see Example 1) (±SD); P-values were determined by Student's t-test.***P<0.001. […] Parental LAPC4 cells were transiently transfected with BRCA2-specific SMARTpool siRNA for 96 hours. Total RNA was isolated, and BRCA2 mRNA was analyzed by qPCR. Scrambled SMARTpool siRNA-transfected cells were used as control (top). […] Cell growth was measured by MTT assay; SD, p-values were determined by Student's t-test. […]
# Cells infected with scrambled (scr) gRNA were used as control. […] Genotypes are detected by PCR amplification followed by being treated with T7 endonuclease. […] Cell growth was measured by MTT assay (see Example 1); SD, P-values determined by Student's t-test. *P<0.05, **P<0.01, ***P<0.001. […] Cell growth was measured by crystal violet staining assay (see Example 1) (±SD); P-values determined by Student's t-test. […] Cell growth was measured by MTT assay (see Example 1) (±SD); P-values determined by Student's t-test. […] Total RNA was isolated, and BRCA2 mRNA was analyzed by qPCR. […] Cell growth was measured by MTT assay; SD, P-values determined by Student's t-test. […]
# [4] = tested on: LNCaP-BRCA2-RB1 cells; assay: qPCR of EMT transcription factors after androgen (R1881) treatment; settings: 1 nM R1881, 48 hours in CSS (FIG. 3I)
# Procedure: Scr-CRISPR and BRCA2-CRISPR2 cells were also transfected with non-targeting shRNA (scr-Sh) for control of shRNA. GAPDH served as the loading control. […] Nuclei were stained with DAPI (blue). […] Control cells were transfected with empty vector. […] GAPDH served as the loading control. […] LNCaP cells were used as control. GAPDH served as the loading control. […] Nuclei were stained with DAPI (blue). […] Equivalent volume of DMSO was used as placebo treatment. Cell growth was measured by MTT assay; SD, P-values determined by Student's t-test. […] LNCaP-BRCA2-RB1 or control cells were incubated in charcoal-stripped medium (CSS) for 24 hours followed by treatment with 1 nM R1881 for another 48 hours (in CSS). […] Expression of the indicated genes normalized with untreated control and GAPDH. […] Scrambled-SMARTpool siRNA transfected LNCaP cells were used as control. 2.5×10^3 indicated cells (72 hours after indicated siRNA transfection) were plated on the top of Boyden chamber in serum-free media; 10% serum in the bottom chamber was used as chemo-attractant. After 24 hours, cells in the lower side of the chamber were fixed, stained, photographed in 100× magnification (top panel), and counted and represented in the form of the bar graph (bottom panel). P-values were determined by Student's t-test.
# RNA Extraction and qPCR. […] All quantifications were normalized to endogenous GAPDH.
SMILES,growth in complete media supplemented with enzalutamide [1],growth in complete media supplemented with enzalutamide [2],resistance to enzalutamide (cell growth) [3],SLUG mRNA (qPCR) [4]
CNC(=O)c1ccc(N2C(=S)N(c3ccc(C#N)c(C(F)(F)F)c3)C(=O)C2(C)C)cc1F [enzalutamide],resistance to androgen depletion,resistance to androgen depletion,relative resistance,
C[C@]1(O)CC[C@H]2[C@@H]3CCC4=CC(=O)CCC4=C3C=C[C@@]21C [R1881],,,,significantly increased
